Results published in patent publication US9963467B2, “Boronic acid derivatives and therapeutic uses thereof” (Rempex Pharmaceuticals, Inc., priority 2014, dated 2018).

Key:
[1] = system: KP1086 (OXA-48); assay: Biapenem potentiation (MPC@1), KP1086; conditions: for BPM MPC1 OXA-48 KP1086: BLI with biapenem at 1 μg/mL
[2] = system: KP1004 (KPC-2); assay: Biapenem potentiation (MPC@1), KP1004; conditions: for BPM MPC1 KP1004 KPC-2: BLI with biapenem at 1 μg/mL
[3] = Serum stability of prodrugs, human serum; type: in vitro ADME; conditions: for Measured Initial Conc. in Serum / Conc. at t = 2 h / Conc. at t = 4 h: human serum, theoretical initial conc. 40 ug/mL; for Measured Initial Conc. in Serum: 37 degrees; for Conc. at t = 2 h / Conc. at t = 4 h: prodrug
Experimental: (§1) Prodrug strategy is one of the ways to achieve or increase oral bioavailability for therapeutic drugs. […] After a prodrug molecule is absorbed into systemic circulation, it should be hydrolyzed in the blood in order to release the active form. Hydrolysis of several prodrugs by rat and human serum were evaluated.
(§2) For all stability experiments the test compounds were treated with rat or human serum in Eppendorf tubes. Typically, 992 μl of serum was prewarmed at 37 degrees for 2 minutes and then 8 μl of a compound (at 5 mg/ml, 125×) was added to it to get a final concentration of […] and immediately mixed. Alternatively, serum stability might be tested at 1 mg/ml. […] After vortexing for 30 seconds, the tube was centrifuged in a microcentrifuge for 10 minutes at 15K rpm. Next, 100 μl of the supernatant was combined with 600 μl of water and injected on LC-MS using 0.1% formic acid in water for mobile phase A and 0.1% formic acid in methanol for mobile phase B on an ACE 5 C18 2.1×100 mm column with a 10 μL injection. The flow rate and gradient were adjusted as needed to give the desired resolution and run time. The pH of the mobile phase was adjusted if needed to improve the chromatography.
(§3) The time course of both the disappearance of a prodrug and the appearance of the active form of that prodrug is presented in Table 6 and Table 7. The active metabolites for all of the listed prodrugs are corresponding parent drugs

[4] = Serum stability of prodrugs, rat serum; type: in vitro ADME; conditions: theoretical initial conc. 40 ug/mL; for Measured Initial Conc. in Serum: 37 degrees; for Conc. at t = 2 h / Conc. at t = 4 h: prodrug
Experimental: as §1, §2, §3

[5] = target: OXA-48 (Klebsiella pneumoniae, UniProt Q6XEC0); assay: Ki, nitrocefin cleavage by purified enzyme, OXA-48; type: biochemical; conditions: nitrocefin reporter substrate; read-out: Ki (OXA-48, NCF)
Experimental: (§4) Purified enzymes were mixed with various concentrations of inhibitors in reaction buffer and incubated for 10 min at room temperature. Nitrocefin was added and substrate cleavage profiles were recorded at 490 nm every 10 sec for 10 min.

[6] = system: ec302 (TEM-10); assay: Tigemonam potentiation (MPC@4), ec302; type: cell-based
[7] = system: KP1005 (CTX-M-14); assay: Tigemonam potentiation (MPC@4), KP1005; type: cell-based; conditions: BLI with tigemonam at 4 μg/mL
[8] = target: KPC-2 (Klebsiella pneumoniae, UniProt Q9F663); assay: Ki, nitrocefin cleavage by purified enzyme, KPC-2; type: biochemical; conditions: nitrocefin reporter substrate; read-out: Ki (KPC-2, NCF)
Experimental: as §4

[9] = system: ec302 (TEM-10); assay: Aztreonam potentiation (MPC@4), ec302; type: cell-based; conditions: BLI with aztreonam at 4 μg/mL
[10] = target: P99 (Enterobacter cloacae, UniProt P05364); assay: Ki, nitrocefin cleavage by purified enzyme, P99; type: biochemical; conditions: nitrocefin reporter substrate; read-out: Ki (P99, NCF)
Experimental: as §4

[11] = system: KP1010 (SHV-12); assay: Tigemonam potentiation (MPC@4), KP1010; type: cell-based
[12] = system: ECL1002; assay: Tigemonam potentiation (MPC@4), ECL1002; type: cell-based; conditions: BLI with tigemonam at 4 μg/mL
[13] = target: SHV-12 (Klebsiella pneumoniae, UniProt P0AD64, E235K/G234S/L31Q); assay: Ki, nitrocefin cleavage by purified enzyme, SHV-12; type: biochemical; conditions: nitrocefin reporter substrate; read-out: Ki (SHV-12, NCF)
Experimental: as §4

[14] = system: ec308 (SHV-5); assay: Tigemonam potentiation (MPC@4), ec308; type: cell-based
[15] = target: Pa AmpC (Pseudomonas aeruginosa, UniProt P24735); assay: Ki, nitrocefin cleavage by purified enzyme, Pa AmpC; type: biochemical; conditions: nitrocefin reporter substrate; read-out: Ki (Pa AmpC, NCF)
Experimental: Ki values of inhibition of purified class A, C and D enzymes were determined spectrophotometrically using nitrocefin as reporter substrate. Purified enzymes were mixed with various concentrations of inhibitors in reaction buffer and incubated for 10 min at room temperature. Nitrocefin was added and substrate cleavage profiles were recorded at 490 nm every 10 sec for 10 min. These experiments confirmed that the described compounds are inhibitors with a broad-spectrum of activity towards various β-lactamases.

[16] = target: CTX-M-14 (Escherichia coli, UniProt Q9L5C7); assay: Ki, nitrocefin cleavage by purified enzyme, CTX-M-14; type: biochemical; conditions: nitrocefin reporter substrate; read-out: Ki (CTX-M-14, NCF)
Experimental: as §4

[17] = system: KP1009 (CTX-M-15); assay: Tigemonam potentiation (MPC@4), KP1009; type: cell-based; conditions: BLI with tigemonam at 4 μg/mL
[18] = system: EC1010 (CMY-6); assay: Tigemonam potentiation (MPC@4), EC1010; type: cell-based; conditions: BLI with tigemonam at 4 μg/mL
[19] = system: EC1010 (CMY-6); assay: organism not typed; type: cell-based
[20] = system: ECL1002; assay: Aztreonam potentiation (MPC@4), ECL1002; type: cell-based; conditions: BLI with aztreonam at 4 μg/mL

KPC-2, sequence (Q9F663 25-293, looked up, species assumed): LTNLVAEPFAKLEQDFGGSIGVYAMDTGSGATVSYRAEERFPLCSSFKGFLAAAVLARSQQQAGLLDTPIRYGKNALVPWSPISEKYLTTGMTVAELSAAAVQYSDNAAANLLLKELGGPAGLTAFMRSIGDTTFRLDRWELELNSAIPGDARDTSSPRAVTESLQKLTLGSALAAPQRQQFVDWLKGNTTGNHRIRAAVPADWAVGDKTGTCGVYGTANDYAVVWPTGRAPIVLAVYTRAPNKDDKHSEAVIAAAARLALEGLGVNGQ
Pa AmpC, sequence (P24735 27-397): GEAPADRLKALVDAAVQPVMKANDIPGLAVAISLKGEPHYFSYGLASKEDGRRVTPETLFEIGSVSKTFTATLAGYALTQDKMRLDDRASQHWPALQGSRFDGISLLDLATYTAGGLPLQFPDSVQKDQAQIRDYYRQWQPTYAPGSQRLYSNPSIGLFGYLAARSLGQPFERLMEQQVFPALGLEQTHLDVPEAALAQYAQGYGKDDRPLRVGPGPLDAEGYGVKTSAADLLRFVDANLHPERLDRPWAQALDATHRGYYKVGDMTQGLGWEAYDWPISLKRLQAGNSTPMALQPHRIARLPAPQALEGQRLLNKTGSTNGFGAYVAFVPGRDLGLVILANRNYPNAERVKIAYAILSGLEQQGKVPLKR
CTX-M-14, sequence (Q9L5C7 29-291): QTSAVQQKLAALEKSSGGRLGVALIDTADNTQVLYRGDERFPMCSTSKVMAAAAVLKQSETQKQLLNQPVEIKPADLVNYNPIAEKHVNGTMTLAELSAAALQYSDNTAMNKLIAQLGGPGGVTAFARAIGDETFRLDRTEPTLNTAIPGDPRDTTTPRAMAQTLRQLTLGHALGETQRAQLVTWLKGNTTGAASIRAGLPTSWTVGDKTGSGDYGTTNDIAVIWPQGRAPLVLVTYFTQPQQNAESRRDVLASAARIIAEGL
SHV-12, sequence (P0AD64 22-286 L31Q/G234S/E235K): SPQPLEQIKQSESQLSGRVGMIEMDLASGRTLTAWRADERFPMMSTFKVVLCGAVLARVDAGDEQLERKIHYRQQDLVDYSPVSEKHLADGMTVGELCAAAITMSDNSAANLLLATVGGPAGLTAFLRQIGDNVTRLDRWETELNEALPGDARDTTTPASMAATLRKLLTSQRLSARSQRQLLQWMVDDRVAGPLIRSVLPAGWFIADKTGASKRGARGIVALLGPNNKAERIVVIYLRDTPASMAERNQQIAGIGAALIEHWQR
P99, sequence (P05364 21-381): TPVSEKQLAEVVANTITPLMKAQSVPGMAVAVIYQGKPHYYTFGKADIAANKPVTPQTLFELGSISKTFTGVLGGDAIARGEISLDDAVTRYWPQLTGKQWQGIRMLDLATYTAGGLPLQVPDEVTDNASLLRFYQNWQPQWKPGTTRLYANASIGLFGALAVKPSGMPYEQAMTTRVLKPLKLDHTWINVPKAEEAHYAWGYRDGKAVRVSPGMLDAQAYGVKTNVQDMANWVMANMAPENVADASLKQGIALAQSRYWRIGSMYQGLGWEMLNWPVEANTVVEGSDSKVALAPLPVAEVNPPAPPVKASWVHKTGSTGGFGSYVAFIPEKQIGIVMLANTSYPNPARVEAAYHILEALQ
OXA-48, sequence (Q6XEC0 23-265, looked up, species assumed): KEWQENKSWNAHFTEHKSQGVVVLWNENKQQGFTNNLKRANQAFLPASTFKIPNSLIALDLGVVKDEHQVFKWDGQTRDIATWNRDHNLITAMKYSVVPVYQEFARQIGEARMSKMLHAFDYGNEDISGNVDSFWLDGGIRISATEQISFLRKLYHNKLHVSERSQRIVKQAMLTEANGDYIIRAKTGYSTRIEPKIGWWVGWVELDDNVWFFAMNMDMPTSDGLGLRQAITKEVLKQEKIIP

Structure (SMILES)	Measured Initial Conc. in Serum [3] [µg/mL]	Conc. at t = 2 h [3] [ng/mL]	Conc. at t = 4 h [3]	Measured Initial Conc. in Serum [4] [µg/mL]	Conc. at t = 2 h [4]	Conc. at t = 4 h [4]	BPM MPC1 OXA-48 KP1086 [1]	Ki [5] [nM]	TIG MPC4 TEM-10 ec302 [6]	TIG MPC4 CTX-M-14 KP1005 [7]	Ki [8] [nM]	AZT MPC4 TEM-10 ec302 [9]	Ki [10] [nM]	TIG MPC4 SHV-12 KP1010 [11]	TIG MPC4 ECL1002 [12]	Ki [13] [nM]	TIG MPC4 SHV-5 ec308 [14]	Ki [15] [nM]	Ki [16] [nM]	TIG MPC4 CTX-M-15 KP1009 [17]	other results
C[C@@H](O)[C@H]1C(=O)N2C(C(=O)[O-])=C(SC3Cn4cnc[n+]4C3)[C@H](C)[C@H]12 (stereo partly drawn) [Biapenem, reference compound]																					MIC ([1]; read-out: Biapenem MIC KP1086): > 10 µg/mL; MIC ([2]; read-out: Biapenem MIC KP1004): > 10 µg/mL
CCCC(=O)OCOC(=O)c1c(F)ccc2c1OB(O)[C@@H](NC(=O)CSC)C2 [Compound 13, (R)-butyryloxymethyl 7-fluoro-2-hydroxy-3-(2-(methylthio)acetamido)-3,4-dihydro-2H-benzo[e][1,2]oxaborinine-8-carboxylate]	30.6	1560	BQL	28.1	9.81 (t = 2 h) ug/mL	BQL															conversion of prodrug to active metabolite ([3]; serum (Tables 6 and 7), 4 hour experiment): completely converted to active metabolite
CSCC(=O)N[C@H]1Cc2ccc(F)c(C(=O)OCOC(C)=O)c2OB1O [Compound 14, (R)-acetoxymethyl 7-fluoro-2-hydroxy-3-(2-(methylthio)acetamido)-3,4-dihydro-2H-benzo[e][1,2]oxaborinine-8-carboxylate]	36.8	5000	1130 ng/mL	39.6	BQL	BQL															
CSCC(=O)N[C@H]1Cc2ccc(F)c(C(=O)OCOC(=O)OC(C)C)c2OB1O [Compound 15, (R)-(isopropoxycarbonyloxy)methyl 7-fluoro-2-hydroxy-3-(2-(methylthio)acetamido)-3,4-dihydro-2H-benzo[e][1,2]oxaborinine-8-carboxylate]	33.2	12800	5320 ng/mL	30.6	BQL	BQL															
COc1ccc2c(c1C(=O)O)OB(O)[C@@H](NC(=O)CSC(F)F)C2 [Compound 25, (R)-3-(2-(difluoromethylthio)acetamido)-2-hydroxy-7-methoxy-3,4-dihydro-2H-benzo[e][1,2]oxaborinine-8-carboxylic acid]							Z (MIC of greater than 10 μg/mL)	< 1	Y (key: X: MIC of less than 1 ng/mL; Y: MIC of 1 μg/mL to 10 μg/mL; Z: MIC of greater than 10 μg/mL)	X (MIC of less than 1 μg/mL)	1 to 10	X (MIC of less than 1 ng/mL)	1 to 10	X (key: X: MIC of less than 1 μg/mL; Y: MIC of 1 μg/mL to 10 μg/mL; Z: MIC of greater than 10 μg/mL)	X (MIC of less than 1 μg/mL)	< 1	X (key: X: MIC of less than 1 μg/mL; Y: MIC of 1 μg/mL to 10 μg/mL; Z: MIC of greater than 10 μg/mL)	> 10	< 1	X (MIC of less than 1 μg/mL)	BPM MPC1 KP1004 KPC-2 [2]: X (MIC of less than 1 μg/mL); TIG MPC4 CMY-6 EC1010 [18]: X (MIC of less than 1 μg/mL); AZT MPC4 CMY-6 EC1010 [19]: Y (key: X: MIC of less than 1 ng/mL; Y: MIC of 1 μg/mL to 10 μg/mL; Z: MIC of greater than 10 μg/mL); AZT MPC4 ECL1002 [20]: Y (MIC of 1 μg/mL to 10 μg/mL)
COc1ccc2c(c1C(=O)O)OB(O)[C@@H](NC(=O)CSC1CNC1)C2 [Compound 26, (R)-3-(2-(azetidin-3-ylthio)acetamido)-2-hydroxy-7-methoxy-3,4-dihydro-2H-benzo[e][1,2]oxaborinine-8-carboxylic acid]							Y (MIC of 1 μg/mL to 10 μg/mL)	1 to 10	Y (key: X: MIC of less than 1 ng/mL; Y: MIC of 1 μg/mL to 10 μg/mL; Z: MIC of greater than 10 μg/mL)	X (MIC of less than 1 μg/mL)	> 10	Y (MIC of 1 μg/mL to 10 μg/mL)	> 10	X (key: X: MIC of less than 1 μg/mL; Y: MIC of 1 μg/mL to 10 μg/mL; Z: MIC of greater than 10 μg/mL)	X (MIC of less than 1 μg/mL)	< 1	X (key: X: MIC of less than 1 μg/mL; Y: MIC of 1 μg/mL to 10 μg/mL; Z: MIC of greater than 10 μg/mL)	> 10	< 1	X (MIC of less than 1 μg/mL)	BPM MPC1 KP1004 KPC-2 [2]: X (MIC of less than 1 μg/mL); TIG MPC4 CMY-6 EC1010 [18]: X (MIC of less than 1 μg/mL); AZT MPC4 CMY-6 EC1010 [19]: Y (key: X: MIC of less than 1 ng/mL; Y: MIC of 1 μg/mL to 10 μg/mL; Z: MIC of greater than 10 μg/mL); AZT MPC4 ECL1002 [20]: Y (MIC of 1 μg/mL to 10 μg/mL)
COc1ccc2c(c1C(=O)O)OB(O)[C@@H](NC(=O)CC(N)=O)C2 [Compound 27, (R)-3-(3-amino-3-oxopropanamido)-2-hydroxy-7-methoxy-3,4-dihydro-2H-benzo[e][1,2]oxaborinine-8-carboxylic acid]							Y (MIC of 1 μg/mL to 10 μg/mL)	< 1	Z (key: X: MIC of less than 1 ng/mL; Y: MIC of 1 μg/mL to 10 μg/mL; Z: MIC of greater than 10 μg/mL)	Y (MIC of 1 μg/mL to 10 μg/mL)	> 10	Y (MIC of 1 μg/mL to 10 μg/mL)	> 10	X (key: X: MIC of less than 1 μg/mL; Y: MIC of 1 μg/mL to 10 μg/mL; Z: MIC of greater than 10 μg/mL)	X (MIC of less than 1 μg/mL)	< 1	X (key: X: MIC of less than 1 μg/mL; Y: MIC of 1 μg/mL to 10 μg/mL; Z: MIC of greater than 10 μg/mL)	> 10	< 1	X (MIC of less than 1 μg/mL)	BPM MPC1 KP1004 KPC-2 [2]: X (MIC of less than 1 μg/mL); TIG MPC4 CMY-6 EC1010 [18]: X (MIC of less than 1 μg/mL); AZT MPC4 CMY-6 EC1010 [19]: Y (key: X: MIC of less than 1 ng/mL; Y: MIC of 1 μg/mL to 10 μg/mL; Z: MIC of greater than 10 μg/mL); AZT MPC4 ECL1002 [20]: Y (MIC of 1 μg/mL to 10 μg/mL)
